Laboratory results as given in article PMC6736837, “^18F-labelled triazolyl-linked argininamides targeting the neuropeptide Y Y1R for PET imaging of mammary carcinoma” (Scientific Reports, 2019).

Experiments:
[1] = target: T1, hY1R (Homo sapiens, UniProt P25929); experiment: Y1R competition binding with [^3H]UR-MK299 on SK-N-MC neuroblastoma cells; details: displacement of [^3H]UR-MK299, SK-N-MC neuroblastoma cells
T1 construct: endogenous in cells; host or cells: SK-N-MC neuroblastoma cells
T1 sequence (P25929 1-384): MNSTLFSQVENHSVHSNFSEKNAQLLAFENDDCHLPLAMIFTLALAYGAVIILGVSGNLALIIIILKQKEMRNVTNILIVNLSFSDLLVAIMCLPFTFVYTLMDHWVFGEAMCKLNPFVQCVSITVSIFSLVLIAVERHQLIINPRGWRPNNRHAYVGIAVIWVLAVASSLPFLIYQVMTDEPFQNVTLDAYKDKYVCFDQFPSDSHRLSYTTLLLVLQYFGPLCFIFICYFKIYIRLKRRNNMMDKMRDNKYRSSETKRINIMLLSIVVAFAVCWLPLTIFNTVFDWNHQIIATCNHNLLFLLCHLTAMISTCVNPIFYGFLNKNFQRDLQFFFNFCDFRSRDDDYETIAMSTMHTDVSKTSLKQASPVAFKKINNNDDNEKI
Method: (§1) Data analysis (four-parameter sigmoidal fitting of specifically bound radioligand plotted against log(concentration) competitor) was performed using SigmaPlot (Systat Software, San Jose, CA, USA) (Y1R binding). IC50 values were converted to Ki values according to the Cheng-Prusoff equation[24].

[2] = target: T2, hY2R (Homo sapiens, UniProt P49146); experiment: Competition binding on CHO-hY2-Gqi5-mtAEQ cells with [^3H]propionyl-pNPY; details: for selectivity for Y1R over Y2R (multiple of the Ki value for Y1R): calculated from Ki values; for binding to Y2R (in words): maximum concentration of 10 µM
T2 construct: expressed in transfected cells; host or cells: CHO cells (CHO-hY2-Gqi5-mtAEQ)
T2 sequence (P49146 1-381): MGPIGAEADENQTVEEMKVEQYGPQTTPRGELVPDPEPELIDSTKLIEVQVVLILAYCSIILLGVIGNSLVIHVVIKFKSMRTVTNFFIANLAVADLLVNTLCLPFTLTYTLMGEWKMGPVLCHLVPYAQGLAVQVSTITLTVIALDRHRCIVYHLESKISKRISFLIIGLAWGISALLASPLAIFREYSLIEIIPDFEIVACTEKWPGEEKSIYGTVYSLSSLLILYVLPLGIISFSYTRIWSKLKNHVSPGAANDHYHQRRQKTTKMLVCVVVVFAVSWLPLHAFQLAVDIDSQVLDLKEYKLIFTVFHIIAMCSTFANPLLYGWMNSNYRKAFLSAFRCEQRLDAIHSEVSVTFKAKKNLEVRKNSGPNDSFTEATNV
Method: as §1
(§2) Table S1: Structures, in-vitro Y1 receptor affinities and selectivities of potential Y1R PET radioligands. For Y2R, Y4R and Y5R, Ki values are given in the first row. In the second row, the calculated selectivities for Y1R over Y2R, Y4R and Y5R are given as a multiple of the Ki value for […]
(§3) compound structure hY1R hY2R hY4R hY5R
(§4) Ki ± SEMa Kiselectivity selectivity selectivity […]
(§5) aDetermined by competition binding on SK-N-MC neuroblastoma cells using the radioligand [3H]UR-MK2994.
(§6) Mean Ki values ± SEM are the results of three individual experiments each performed in triplicate. bDetermined by competition binding at CHO-hY2-Gqi5-mtAEQ cells and HEC-1b hY5R cells using the radioligand [3H]propionyl-pNPY. Two independent experiments were performed in triplicate. cDetermined by competition binding on CHO-hY4R-Gqi5-mtAEQ cells using the radioligand [3H]UR-KK200.
(§7) Two independent experiments were performed in triplicate.
(§8) SEM = standard error of the mean. […]

[3] = target: T3, hY4R (Homo sapiens, UniProt P50391); experiment: Competition binding on CHO-hY4R-Gqi5-mtAEQ cells with [^3H]UR-KK200; details: for Ki: CHO-hY4R-Gqi5-mtAEQ cells, [^3H]UR-KK200; for selectivity for Y1R over Y4R (multiple of the Ki value for Y1R): calculated from Ki values; for binding to Y4R (in words): maximum concentration of 10 µM
T3 construct: expressed in transfected cells; host or cells: CHO cells (CHO-hY4R-Gqi5-mtAEQ)
T3 sequence (P50391 whole entry): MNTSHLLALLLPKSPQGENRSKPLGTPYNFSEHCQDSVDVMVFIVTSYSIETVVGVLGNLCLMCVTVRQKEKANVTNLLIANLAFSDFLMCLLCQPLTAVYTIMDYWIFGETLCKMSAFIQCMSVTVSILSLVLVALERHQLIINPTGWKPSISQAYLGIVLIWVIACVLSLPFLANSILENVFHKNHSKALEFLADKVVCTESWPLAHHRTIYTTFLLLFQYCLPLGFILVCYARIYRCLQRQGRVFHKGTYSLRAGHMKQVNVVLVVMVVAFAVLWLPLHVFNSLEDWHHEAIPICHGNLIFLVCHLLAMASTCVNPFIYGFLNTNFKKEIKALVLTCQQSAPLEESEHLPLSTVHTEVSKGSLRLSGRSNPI
Method: as §1, §2, §3, §4, §5, §6, §7, §8

[4] = target: T4, hY5R (Homo sapiens, UniProt Q15761); experiment: Competition binding on HEC-1b hY5R cells with [^3H]propionyl-pNPY; details: for selectivity for Y1R over Y5R (multiple of the Ki value for Y1R): calculated from Ki values; for binding to Y5R (in words): maximum concentration of 10 µM
T4 construct: expressed in transfected cells; host or cells: HEC-1b cells (HEC-1b hY5R)
T4 sequence (Q15761 1-445): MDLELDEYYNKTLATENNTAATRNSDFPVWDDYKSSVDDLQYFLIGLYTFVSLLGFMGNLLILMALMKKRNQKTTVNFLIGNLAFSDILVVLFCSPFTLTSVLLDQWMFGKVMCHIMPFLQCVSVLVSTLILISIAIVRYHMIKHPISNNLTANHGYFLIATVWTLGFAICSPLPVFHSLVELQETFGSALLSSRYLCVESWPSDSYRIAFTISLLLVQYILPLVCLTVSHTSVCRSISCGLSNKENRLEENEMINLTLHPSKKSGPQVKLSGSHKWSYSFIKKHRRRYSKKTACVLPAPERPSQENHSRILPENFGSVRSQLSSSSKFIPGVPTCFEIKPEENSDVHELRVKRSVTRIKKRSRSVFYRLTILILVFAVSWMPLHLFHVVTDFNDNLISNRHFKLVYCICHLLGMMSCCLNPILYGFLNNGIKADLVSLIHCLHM
Method: as §1, §2, §3, §4, §5, §6, §7, §8

SMILES: C#CCNC(=O)N=C(N)NCCC[C@@H](NC(=O)C(c1ccccc1)c1ccccc1)C(=O)NCc1ccc(O)cc1 [compound 7]
- Ki [1]: 0.00094 µM

SMILES: N/C(=N/C(=O)NCc1cn([C@@H]2OC(CF)[C@@H](O)C(O)C2O)nn1)NCCC[C@@H](NC(=O)C(c1ccccc1)c1ccccc1)C(=O)NCc1ccc(O)cc1 (stereo partly drawn) [compound 11, (2R)‐5‐{[(1Z)‐Amino({[({1‐[(2R,5S)‐6‐(fluoromethyl)‐3,4,5‐trihydroxyoxan‐2‐yl]‐1H‐1,2,3‐triazol‐4‐yl}methyl)carbamoyl]imino})methyl]amino}‐2‐(2,2‐diphenylacetamido)‐N‐[(4‐hydroxyphenyl)-methyl]pentanamide]
- Ki [2]: > 10 µM
- selectivity for Y1R over Y2R (multiple of the Ki value for Y1R) [2]: > 48 ×
- binding to Y2R (in words) [2]: None of the three compounds showed considerable binding
- Ki [3]: > 3 µM
- selectivity for Y1R over Y4R (multiple of the Ki value for Y1R) [3]: > 14 ×
- binding to Y4R (in words) [3]: None of the three compounds showed considerable binding
- Ki [1]: 0.208 µM
- Ki [4]: > 15 µM
- selectivity for Y1R over Y5R (multiple of the Ki value for Y1R) [4]: > 72 ×
- binding to Y5R (in words) [4]: None of the three compounds showed considerable binding

SMILES: N/C(=N/C(=O)NCc1cn(CCOCCF)nn1)NCCC[C@@H](NC(=O)C(c1ccccc1)c1ccccc1)C(=O)NCc1ccc(O)cc1 [compound 12, (2R)‐5‐{[(1Z)‐Amino({[({1‐[2‐(2‐fluoroethoxy)ethyl]‐1H‐1,2,3‐triazol‐4‐yl}methyl)carbamoyl]-imino})methyl]amino}‐2‐(2,2‐diphenylacetamido)‐N‐[(4‐hydroxyphenyl)methyl]pentanamide]
- Ki [2]: > 10 µM
- selectivity for Y1R over Y2R (multiple of the Ki value for Y1R) [2]: > 3610 ×
- binding to Y2R (in words) [2]: None of the three compounds showed considerable binding
- Ki [3]: > 10 µM
- selectivity for Y1R over Y4R (multiple of the Ki value for Y1R) [3]: > 3610 ×
- binding to Y4R (in words) [3]: None of the three compounds showed considerable binding
- Ki [1]: 0.0028 µM
- Ki [4]: > 15 µM
- selectivity for Y1R over Y5R (multiple of the Ki value for Y1R) [4]: > 5415 ×
- binding to Y5R (in words) [4]: None of the three compounds showed considerable binding

SMILES: N/C(=N/C(=O)NCc1cn(CCOCCOCCOCCF)nn1)NCCC[C@@H](NC(=O)C(c1ccccc1)c1ccccc1)C(=O)NCc1ccc(O)cc1 [compound 13, (2R)‐5‐{[(1Z)‐Amino[({[1‐(2‐{2‐[2‐(2‐fluoroethoxy)ethoxy]ethoxy}ethyl)‐1H‐1,2,3‐triazol‐4‐yl]methyl}carbamoyl)imino]methyl]amino}‐2‐(2,2‐diphenylacetamido)‐N‐[(4‐hydroxyphenyl)-methyl]pentanamide]
- Ki [2]: > 5 µM
- selectivity for Y1R over Y2R (multiple of the Ki value for Y1R) [2]: > 173 ×
- binding to Y2R (in words) [2]: None of the three compounds showed considerable binding
- Ki [3]: > 10 µM
- selectivity for Y1R over Y4R (multiple of the Ki value for Y1R) [3]: > 345 ×
- binding to Y4R (in words) [3]: None of the three compounds showed considerable binding
- Ki [1]: 0.029 µM
- Ki [4]: > 10 µM
- selectivity for Y1R over Y5R (multiple of the Ki value for Y1R) [4]: > 345 ×
- binding to Y5R (in words) [4]: None of the three compounds showed considerable binding
